# Reference: paper PMC6032016, “Synthesis, biological evaluation, and molecular modelling studies of potent human neutrophil elastase (HNE) inhibitors” (Journal of Enzyme Inhibition and Medicinal Chemistry, 2018)
# Legend:
# HNE [1] = target: T1, HNE (Homo sapiens, UniProt P08246); assay: Reversibility of HNE inhibition over extended periods of time; assay type: biochemical; conditions: 8 µM compound
# T1 construct: purchased Calbiochem
# T1 sequence (P08246 30-267): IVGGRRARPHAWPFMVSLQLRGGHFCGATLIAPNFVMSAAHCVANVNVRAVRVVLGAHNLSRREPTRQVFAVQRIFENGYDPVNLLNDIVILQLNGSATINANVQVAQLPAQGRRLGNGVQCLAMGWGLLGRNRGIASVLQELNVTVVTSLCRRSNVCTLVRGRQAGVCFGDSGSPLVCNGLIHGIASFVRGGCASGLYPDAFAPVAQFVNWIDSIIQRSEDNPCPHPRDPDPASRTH
# Procedure: The inhibition was maximal for up to 60 min with compound 7e and >120 min for the other tested compounds (4a, 4b, and 7a). However, inhibition by the compounds was eventually reversed, and full recovery of HNE activity was observed by 4 h after treatment with 8 µM of the compound (e.g. see Figure 6).
# Figure 6. […] HNE was incubated with the indicated compounds (8 µM), and kinetic curves monitoring substrate cleavage catalysed by HNE over time are shown. Representative curves are from two independent experiments.
# [2] = Analysis of compound stability: spontaneous hydrolysis in aqueous buffer; assay type: physicochemical; conditions: 25 °C, 0.05 M phosphate buffer, pH 7.3; read-out: t1/2 for spontaneous hydrolysis (converted)
# Procedure: Spontaneous hydrolysis of selected derivatives was evaluated at 25 °C in 0.05 M phosphate buffer, pH 7.3. Kinetics of hydrolysis were monitored by measuring changes in the absorbance spectra over time using a SpectraMax Plus microplate spectrophotometer (Molecular Devices, Sunnyvale, CA). Absorbance (At) at the characteristic absorption maxima of each compound was measured at the indicated times until no further absorbance decreases occurred (A∞)[52]. Using these measurements, we created semilogarithmic plots of log(At–A∞) versus time, and k′ values were determined from the slopes of these plots. Half-conversion times were calculated using t1/2 = 0.693/k′, as described previously[36]^,[37].
# [3] = target: T2, HNE (human neutrophil elastase) (Homo sapiens, UniProt P08246); assay: HNE inhibition assay (fluorogenic substrate cleavage); assay type: biochemical; conditions: mean ± SD of three independent experiments; NA: no inhibitory activity at the highest concentration tested (50 µM)
# T2 construct: purchased Calbiochem
# T2 sequence (P08246 30-267): T1 sequence (P08246 30-267)
# Procedure: Compounds were dissolved in 100% DMSO at 5 mM stock concentrations. […] The HNE inhibition assay was performed in black flat-bottom 96-well microtiter plates. Briefly, a buffer solution containing 200 mM Tris–HCl, pH 7.5, 0.01% bovine serum albumin, and 0.05% Tween-20 and 20 mU/mL of HNE (Calbiochem) was added to wells containing different concentrations of each compound. The reaction was initiated by addition of 25 µM elastase substrate (N-methylsuccinyl-Ala-Ala-Pro-Val-7-amino-4-methylcoumarin, Calbiochem) in a final reaction volume of 100 µl/well. Kinetic measurements were obtained every 30 s for 10 min at 25 °C using a Fluoroskan Ascent FL fluorescence microplate reader (Thermo Electron, MA) with excitation and emission wavelengths set at 355 and 460 nm, respectively. For all compounds tested, the concentration of inhibitor that caused 50% inhibition of the enzymatic reaction (IC50) was calculated by plotting % inhibition versus logarithm of inhibitor concentration (at least six points). The data are presented as the mean values of at least three independent experiments with relative standard deviations of <15%.
# HNE [4] = target: T1, HNE; assay: Kinetics of HNE inhibition (double-reciprocal Lineweaver–Burk plots); assay type: biochemical; conditions: Lineweaver–Burk plot of fluorogenic substrate hydrolysis
# From the text: To better understand the mechanism of action of these isoxazolone HNE inhibitors, we performed kinetic experiments.
# Figure 7. Kinetics of HNE inhibition by compounds 7d and 8d. Representative double reciprocal Lineweaver–Burk plots are shown from three independent experiments.
smiles,measurement,setting,value
"CC(=O)Nc1ccc(-c2c(C)n(C(=O)c3cccc(C)c3)oc2=O)cc1 [Compound 7d, N-(4-(3-methyl-2-(3-methylbenzoyl)-5-oxo-2,5-dihydroisoxazol-4-yl)phenyl)acetamide]",time after which HNE inhibition was reversed,HNE [1],~30 min
same,half-life,[2],3.9 h
same,IC50,[3],50 ± 20 nM
same,mechanism of HNE inhibition,HNE [4],competitive
same,melting point,,159 to 160 °C
